Reference: ChEMBL document CHEMBL1201862, “PubChem BioAssay data set” (2004)
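Briefly, cells in 96-well plates were exposed to five compound concentrations for 48 h, and endpoints were estimated by linear interpolation. GI50 marks 50% less growth.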 Activity calls are given as the source filed them. No stated cut-off is given here; in the data, active = GI50 up to about 1.1 µM and inactive = higher.

Key:
Experiment in all cases: DTP human tumour cell line panel, 48 h
UACC-62 = tested on: UACC-62
U-251 = tested on: U-251
CAKI-1 = tested on: CAKI-1
Malme-3M = tested on: Malme-3M
HT-29 = tested on: HT-29
RPMI-8226 = tested on: RPMI-8226
RXF 393 = tested on: RXF 393
786-0 = tested on: 786-0
SNB-19 = tested on: SNB-19
SF-295 = tested on: SF-295
OVCAR-5 = tested on: OVCAR-5
ACHN = tested on: ACHN
SF-268 = tested on: SF-268
A549 = tested on: A549
OVCAR-8 = tested on: OVCAR-8
OVCAR-3 = tested on: OVCAR-3

Measured: GI50

CC(C)(C)N/N=C(\Cc1occc(=O)c1O)C(=O)Nc1ccc([N+](=O)[O-])cc1[N+](=O)[O-]
inactive: UACC-62 > 100 µM | U-251 > 100 µM | CAKI-1 > 100 µM | Malme-3M > 100 µM | HT-29 > 100 µM | RPMI-8226 > 100 µM | RXF 393 > 100 µM | 786-0 > 100 µM | SNB-19 > 100 µM | SF-295 > 100 µM | OVCAR-5 > 100 µM | ACHN > 100 µM | SF-268 > 100 µM | A549 > 100 µM | OVCAR-8 > 100 µM

O=C1CCC(c2nc3cc(Cl)ccc3o2)C(=O)N1 (configuration not stated)
inactive: UACC-62 > 100 µM | U-251 > 100 µM | OVCAR-3 > 100 µM | CAKI-1 > 100 µM | Malme-3M > 100 µM | HT-29 > 100 µM | RXF 393 > 100 µM | 786-0 > 100 µM | SNB-19 > 100 µM | SF-295 > 100 µM | OVCAR-5 > 100 µM | ACHN > 100 µM | SF-268 > 100 µM | A549 > 100 µM | OVCAR-8 > 100 µM

CC1(C)C2C=CC1C(=O)CC2 (configuration not stated)
inactive: U-251 > 100 µM | OVCAR-3 > 100 µM | CAKI-1 > 100 µM | Malme-3M > 100 µM | HT-29 > 100 µM | RPMI-8226 > 100 µM | RXF 393 > 100 µM | 786-0 > 100 µM | SNB-19 15.9 µM | SF-295 > 100 µM | OVCAR-5 > 100 µM | ACHN > 100 µM | SF-268 > 100 µM | A549 > 100 µM | OVCAR-8 > 100 µM

N#Cc1cnsc1
inactive: UACC-62 > 100 µM | U-251 > 100 µM | OVCAR-3 > 100 µM | CAKI-1 > 100 µM | Malme-3M > 100 µM | HT-29 > 100 µM | RPMI-8226 > 100 µM | RXF 393 > 100 µM | 786-0 > 100 µM | SF-295 > 100 µM | OVCAR-5 > 100 µM | ACHN > 100 µM | SF-268 > 100 µM | A549 > 100 µM | OVCAR-8 > 100 µM

CN(C)CCN(C)C(=O)c1cccc2cccc(C(=O)O)c12
inactive: UACC-62 > 100 µM | U-251 > 100 µM | OVCAR-3 > 100 µM | Malme-3M > 100 µM | HT-29 > 100 µM | RPMI-8226 > 100 µM | RXF 393 > 100 µM | 786-0 > 100 µM | SNB-19 > 100 µM | SF-295 > 100 µM | OVCAR-5 > 100 µM | ACHN > 100 µM | SF-268 > 100 µM | A549 > 100 µM | OVCAR-8 > 100 µM

O=C(O/N=C1\CCCC\C1=C/c1ccccc1)c1ccc([N+](=O)[O-])cc1
inactive: UACC-62 > 100 µM | U-251 86.3 µM | OVCAR-3 42.1 µM | CAKI-1 > 100 µM | Malme-3M > 100 µM | HT-29 > 100 µM | RPMI-8226 > 100 µM | RXF 393 > 100 µM | 786-0 98.6 µM | SF-295 69.8 µM | OVCAR-5 > 100 µM | ACHN 64.4 µM | SF-268 > 100 µM | A549 88.5 µM | OVCAR-8 > 100 µM

N#CNC(=N)NC(=O)/C=C/C=C/c1ccc(Cl)cc1
inactive: UACC-62 > 100 µM | U-251 > 100 µM | OVCAR-3 > 100 µM | CAKI-1 > 100 µM | Malme-3M 39.4 µM | HT-29 > 100 µM | RPMI-8226 > 100 µM | RXF 393 41.6 µM | 786-0 88.5 µM | SF-295 > 100 µM | OVCAR-5 > 100 µM | ACHN > 100 µM | SF-268 52.7 µM | A549 > 100 µM | OVCAR-8 82.2 µM

CC(C)(CN1CCCCC1)C(=O)/C=C/c1ccccc1
inactive: UACC-62 18.9 µM | U-251 21.5 µM | OVCAR-3 6.07 µM | CAKI-1 17.3 µM | Malme-3M 14.6 µM | HT-29 7.36 µM | RPMI-8226 14.7 µM | RXF 393 11.9 µM | 786-0 13.6 µM | SNB-19 16.4 µM | SF-295 15.5 µM | OVCAR-5 19.9 µM | ACHN 25.8 µM | SF-268 13.3 µM | A549 16.9 µM | OVCAR-8 15.8 µM

COc1ccc(-c2cc(-c3ccco3)c(C#N)c(=O)[nH]2)cc1
inactive: UACC-62 > 100 µM | U-251 15.5 µM | OVCAR-3 22.7 µM | Malme-3M 29.8 µM | HT-29 > 100 µM | RPMI-8226 > 100 µM | RXF 393 45.1 µM | 786-0 91 µM | SNB-19 > 100 µM | SF-295 65 µM | OVCAR-5 > 100 µM | ACHN 87.5 µM | SF-268 36.7 µM | A549 91.4 µM | OVCAR-8 36.8 µM

O=C(C#Cc1cnc(O)nc1O)c1ccccc1Cl
inactive: UACC-62 16.4 µM | U-251 17.9 µM | OVCAR-3 14.2 µM | CAKI-1 17.1 µM | Malme-3M 13.3 µM | HT-29 36.4 µM | RPMI-8226 23.9 µM | RXF 393 3.07 µM | 786-0 18 µM | SNB-19 52.6 µM | SF-295 > 100 µM | OVCAR-5 19.7 µM | ACHN 17.3 µM | SF-268 20.7 µM | A549 79.1 µM | OVCAR-8 15.2 µM
